In brackets after ≈: the same amount, converted by molar mass. Entries after “also recorded” stand apart in the source; their conditions may differ. Where two headings read alike, the source gives them in different places.
Assays:
ten Pss strains = experiment: Dose-response assay (MIC/MBC), summary across ten Pss strains; assay type: cell-based, Pseudomonas syringae pv. syringae; details: Pseudomonas syringae; across the different Pss strains; M9 broth; read-out: MICs and MBCs
[1] = system: Pseudomonas syringae pv. syringae (Pss) SM156-18; experiment: Dose-response assay (MIC/MBC) in M9 minimal broth; details: Pseudomonas syringae, 48 h
Experimental: (§2) Minimum inhibitory concentration (MIC) and minimum bactericidal concentration (MBC) of the 15 PCs against 10 Pss strains. A dose-response assay was conducted with the 15 PCs identified during the primary screening against 10 Pss strains including the model strain, SM1042-14R. The dose-response assay was conducted as described above with concentrations of PCs ranging from 3.125 to 500 μM. Pss treated with non-amended M9 minimal media, 2% DMSO, or 50 μg/ml kanamycin were used as controls. The plate was incubated in a Sunrise Tecan kinetic microplate reader for 48 h at 28° C. The percentage of inhibition and cell viability were determined as described above.

[2] = system: Pseudomonas syringae pv. syringae (Pss) SM04-2018-04; experiment: Dose-response assay (MIC/MBC) in M9 minimal broth; details: Pseudomonas syringae, 48 h
Experimental: as §2

[3] = system: Pseudomonas syringae pv. syringae (Pss) SM914-13; experiment: Dose-response assay (MIC/MBC) in M9 minimal broth; details: Pseudomonas syringae, 48 h
Experimental: as §2

[4] = system: Pss SM1042-14R in infested pepper seeds; experiment: Antimicrobial efficacy on pepper seeds artificially infested with Pss; assay type: in vivo, Pseudomonas syringae pv. syringae; details: 30 dpi, 200 μM, 20 min soak
Experimental: Antimicrobial efficacy of ten selected PCs on pepper seeds artificially infested with Pss SM1042-14R. ‘California Wonder’ pepper seeds were used for artificial infestation with Pss SM1042-14R and PC treatment. Inoculum of Pss SM1042-14R was prepared by growing SM1042-14R in M9 minimal medium overnight as described above. The OD600 was adjusted to 0.1; approximately 1×10^8 CFU/ml. The adjusted inoculum (45 ml of inoculum for 4 g seeds) was transferred to a sterile glass beaker and placed in a Nucerite desiccator (Nalge Sybron, Milwaukee, WI, USA). Seeds were vacuum infiltrated with inoculum at 15 PSI for 5 min. Infested seeds were air-dried in a laminar flow hood at room temperature for 12 h. The dried seeds were transferred to 5 ml sterile tubes and soaked in 1 ml of PCs (200 μM) diluted in sterile water for 20 min. The seeds were air-dried again. Seed aliquots were collected at 1, 3-, 10-, 20-, and 30-days post infestation (dpi, 10 seeds per treatment group per time point). Bacterial populations were estimated by macerating five batches of two seeds per treatment group in 400 μl of 1×PBS in a Whirl Pak bag. […] This was performed twice.

[5] = system: Pseudomonas syringae pv. syringae (Pss) SM109-18; experiment: Dose-response assay (MIC/MBC) in M9 minimal broth; details: Pseudomonas syringae, 48 h
Experimental: (§3) Primary screening of 4,182 SMs was conducted using a high throughput screening method to identify SMs that inhibited the growth of Pss SM1042-14R strain. A fresh bacterial culture of SM1042-14R was grown in M9 minimal broth in a shaking incubator (180 rpm) for 12 h at 28° C. The bacterial culture was normalized to a final optical density (OD600) of 0.05 (c.a., 8.0×10^7 CFU/ml) using a Genesys 20 spectrophotometer (Thermo Scientific, Rockford, IL, USA). In a sterile flat-bottom 96-well plate, 98 μl of the normalized bacterial suspension was challenged with 2 μl of SMs (final concentration of 200 μM). Controls were bacteria challenged with 2% DMSO (positive control; μc+), 50 μg/ml kanamycin (negative control; μc−), or M9 broth alone (blank control). The plate was incubated in a Sunrise Tecan kinetic microplate reader (Tecan Group Ltd., San Jose, CA, USA) for 48 h at 28° C. OD600 was measured every 30 min.
(§4) The plate was agitated for 15 s at 180 rpm before reading the OD600. Growth inhibition of SM1042-14R by the SMs was calculated using the following formula: % of inhibition=(μc+−X)/(μc+−μc−)×100, where μc+ and μc− is the average final OD600 of the positive and negative controls, respectively, and X is the final OD600 of each of the bacterial culture treated with a designated SM. After the 48 h of incubation with the SMs at 28° C., the viability of the bacterial culture was assessed by plating 5 μl of the culture on YDC (Yeast Dextrose Carbonate) agar medium, incubating the plate at 28° C. and monitoring any bacterial colonies on the plate after 48 h.
(§5) A dose-response assay was conducted with the 15 PCs identified during the primary screening against 10 Pss strains including the model strain, SM1042-14R. The dose-response assay was conducted as described above with concentrations of PCs ranging from 3.125 to 500 μM. Pss treated with non-amended M9 minimal media, 2% DMSO, or 50 μg/ml kanamycin were used as controls. The plate was incubated in a Sunrise Tecan kinetic microplate reader for 48 h at 28° C. The percentage of inhibition and cell viability were determined as described above.

[6] = system: Pseudomonas syringae pv. syringae (Pss) SM155-18; experiment: Dose-response assay (MIC/MBC) in M9 minimal broth; details: Pseudomonas syringae, 48 h
Experimental: as §3, §4, §5

[7] = system: Pseudomonas syringae pv. syringae (Pss) SM51-19; experiment: Dose-response assay (MIC/MBC) in M9 minimal broth; details: Pseudomonas syringae, 48 h
Experimental: as §2

[8] = system: Pseudomonas syringae pv. syringae (Pss) SM1038-14; experiment: Dose-response assay (MIC/MBC) in M9 minimal broth; details: Pseudomonas syringae, 48 h
Experimental: as §2

[9] = system: Pseudomonas syringae pv. syringae (Pss) SM1031-14; experiment: Dose-response assay (MIC/MBC) in M9 minimal broth; details: Pseudomonas syringae, 48 h
Experimental: as §3, §4, §5

[10] = system: Pseudomonas syringae pv. syringae (Pss) SM1030-14; experiment: Dose-response assay (MIC/MBC) in M9 minimal broth; details: Pseudomonas syringae, 48 h
Experimental: as §3, §4, §5

[11] = system: Pss SM1042-14R on pepper seedlings; assay type: in vivo, Pseudomonas syringae pv. syringae; details: 200 μM, 7 dpi; for Pseudomonas leaf spot incidence, Curative application / Pseudomonas leaf spot incidence, Preventative application: streptomycin 200 μg/ml, CuSO4 200 μM
Pss SM1042-14R = experiment: Antimicrobial resistance studies (single step and sequential passage); details: Pseudomonas syringae, SM104214R
Experimental: Antimicrobial resistance studies. […] For the single-step resistance, M9 agar medium amended with 2×MBC of PCs was prepared in a sterile 24-well plate. An overnight culture of SM1042-14R was normalized to OD600 of 1.0 (approximately 10^9 CFU/well). In each of the wells containing different PCs, 50 μl of the adjusted bacterial culture was plated onto the 24 well agar plate. The plate was sealed using parafilm and incubated in the dark at 28° C. for 15 days. After 15 days, any colonies that grew on the 24-well plate were evaluated for MIC and MBC as described above. The experiment was conducted with three replicates per treatment group. SM1042-14R plated on non-amended M9 agar medium, 2% DMSO or 50 μg/ml kanamycin were used as controls.
For sequential passage (sublethal dose) resistance assay, SM1042-14R was grown in M9 minimal broth and adjusted to OD600 of 0.05 (approximately 10^7 CFU/ml). In a 96-well plate, 98 μl of the adjusted bacterial culture was transferred and 0.75×MBC of PC (concentration that allows approximately 70% growth inhibition) was added into the wells. Plates were incubated at 28° C. with 150 rpm shaking for 24 h in the dark. After incubation, cells were centrifuged, the pellet was resuspended in fresh M9 broth amended with 0.75×MBC of PC and grown as described above. […] After 15 passages, MIC, and MBC of the PCs to SM1042-14R were determined as described above. […]

pollinator honeybees = experiment: Honeybee acute topical contact toxicity bioassay; assay type: in vivo; details: 48 h, PCs 200 μM, thiamethoxam 0.35 μg per bee
Experimental: Toxicity of the ten PCs on pollinator honeybees. To determine whether the ten selected PCs were toxic to honeybees, an acute topical bioassay was used as recommended by the Ecological Effects Test Guidelines (OCSPP 8503020: Honeybee Acute Contact Toxicity Test). Frames of late stage capped brood were collected from two healthy colonies headed by New Carniolan queens maintained at The Ohio State University Wooster Campus. New adult bees were allowed to emerge in a dark incubator maintained at 32° C. and 60-80% relative humidity and brushed into bulk storage cages daily. Bees were fed sucrose in water (1:1 w/w) and aged for three days in the incubator. Cages of 3-day-old honeybees were anesthetized using carbon dioxide for 2 min and separated into groups of 20 housed in paper cups (UNIQ 6 oz Cups; Frozen Dessert Supplies, Rexburg, Idaho, USA) covered with #20 cotton cheesecloth. The ten PCs were prepared at 200 μM concentration in DMSO. Small groups of honeybees were anaesthetized again with 30 s of carbon dioxide before topical application. The honeybees were individually treated by topically applying lul of the PCs on the dorsal side of thorax using a micro applicator (Hamilton PB-600, Reno, Nevada, USA). […] The mortality of the bees was recorded daily for 48 h. […]

[12] = system: ‘California Wonder’ pepper seeds; experiment: Phytotoxicity on pepper seeds (germination, root and shoot length); assay type: in vivo, Capsicum annuum; details: 14 days post treatment; PCs 200 μM; 1.2% thymol; 2% 2,4-D
Experimental: (§1) Phytotoxicity of the ten selected PCs on pepper tissues. The toxicity of the PCs to plant tissues was assessed on pepper seeds, seedlings, and fruits. […]
Toxicity on seeds. In 2 ml sterile glass vials, 1.5 ml of 1% molten water agar was prepared and supplemented with 200 μM of PCs. Four seeds (‘California Wonder’) were sown into the vials. […] After incubation, seed germination percentage, germling root and shoot length, and necrotic and chlorotic symptoms were recorded from eight treated seeds per treatment group. This was performed twice.

[13] = system: ‘Sunset’ sweet bell pepper fruit; experiment: Phytotoxicity on bell pepper fruits; assay type: in vivo, Capsicum annuum; details: 7 days post treatment; PCs 200 μM; 1.2% thymol; 2% 2,4-D
Experimental: as §1
Toxicity on bell pepper fruits. Pepper fruits were thoroughly washed in soapy water and dried prior to PC treatment. On the surface of each fruit Sul of the PCs (200 μM final concentration) were deposited and air dried under a laminar hood for 30 min. The fruits were incubated in the dark at room temperature and monitored daily for necrotic and chlorotic symptoms. This was performed twice.

[14] = system: ‘California Wonder’ pepper seedlings; experiment: Phytotoxicity on pepper seedling cotyledons; assay type: in vivo, Capsicum annuum; details: 7 days post application; PCs 200 μM; 1.2% thymol; 2% 2,4-D
Experimental: as §1
Toxicity on seedlings. ‘California Wonder’ pepper seeds were sown in sterile 2 ml glass vials containing 1.5 ml of 1% molten water agar. Four seeds were sown in each vial and incubated for 14 days in the dark at room temperature for the seedlings to sprout. Fifty microliters of PCs (200 μM final concentration) were deposited onto the cotyledons of the seedlings and incubated for another 7 days. After 7 days, necrotic and chlorotic symptoms were assessed for 16 treated seedlings per treatment group. This was performed twice.

[15] = preventative (1 day prior to inoculation)

Row | Structure (SMILES) | MBC (ten Pss strains) | MBC [1] | MIC [1] | MBC [2] | MIC [2] | MBC [3] | MIC [3] | reduction in Pss load in infested seeds [4] | MBC [5] | MIC [5] | MBC [6] | MIC [6] | MBC [7] | MIC [7] | MBC [8] | MIC [8] | MBC [9] | MIC [9] | Pseudomonas leaf spot incidence, Curative application [11] | Pseudomonas leaf spot incidence, Preventative application [11] | also measured
1 | Cn1cc(CNCCCn2ccnc2)c(-c2ccc(Oc3ccccc3)cc2)n1 [PC10] | 50 to 200 µM (≈ 19.4 to 77.5 µg/mL) | 200 µM (≈ 77.5 µg/mL) | 200 µM (≈ 77.5 µg/mL) | 200 µM (≈ 77.5 µg/mL) | 200 µM (≈ 77.5 µg/mL) | 200 µM (≈ 77.5 µg/mL) | 200 µM (≈ 77.5 µg/mL) | 1.9±0.2 log CFU/g | 200 µM (≈ 77.5 µg/mL) | 200 µM (≈ 77.5 µg/mL) | 200 µM (≈ 77.5 µg/mL) | 200 µM (≈ 77.5 µg/mL) | 200 µM (≈ 77.5 µg/mL) | 200 µM (≈ 77.5 µg/mL) | 200 µM (≈ 77.5 µg/mL) | 200 µM (≈ 77.5 µg/mL) | 200 µM (≈ 77.5 µg/mL) | 200 µM (≈ 77.5 µg/mL) | 71% | 100% | MBC [10]: 200 µM (≈ 77.5 µg/mL); MIC [10]: 200 µM (≈ 77.5 µg/mL)
2 | [H]/N=C(/N)N[C@H]1[C@H](O)[C@@H](O)[C@H](O[C@@H]2O[C@@H](C)[C@](O)(C=O)[C@H]2O[C@@H]2O[C@@H](CO)[C@H](O)[C@@H](O)[C@@H]2NC)[C@@H](N/C(N)=N\[H])[C@@H]1O [streptomycin] | – | – | – | – | – | – | – | 2.0±0 log CFU/g | – | – | – | – | – | – | – | – | – | – | 86% | 71% | MBC (Pss SM1042-14R; SM1042-14R colonies after the sequential passages resistance assay): > 25 µg/mL; MBC (Pss SM1042-14R; original culture from glycerol stock): 12.5 µg/mL (≈ 21.5 µM); Pseudomonas leaf spot incidence, Curative application ([11]; listed as Strep): 86%; Pseudomonas leaf spot incidence, Preventative application ([11]; listed as Strep): 71%; Pss reduction compared to the DMSO group ([11]; curative (1 dpi)): 2.2±0.5 log CFU/g; disease severity (number of lesions per two leaves) ([11]; curative (1 dpi), first trial): 24.4±18.2 lesions; disease severity (number of lesions per two leaves) [11, 15]: 88.8±62.5 lesions; reduction in Pss load compared to the DMSO group [11, 15]: 1.7±0.8 log CFU/g
3 | CN1COCN(Cc2cnc(Cl)s2)/C1=N\[N+](=O)[O-] [thiamethoxan, thiamethoxam] | – | – | – | – | – | – | – | – | – | – | – | – | – | – | – | – | – | – | – | – | honeybee mortality (pollinator honeybees): 100%
4 | COc1cc(CN(C)Cc2ccccc2)ccc1OCC(O)CN1CCCCCCC1 (stereo not drawn) [PC9] | 50 to 200 µM (≈ 21.3 to 85.3 µg/mL) | 200 µM (≈ 85.3 µg/mL) | 200 µM (≈ 85.3 µg/mL) | 200 µM (≈ 85.3 µg/mL) | 100 µM (≈ 42.7 µg/mL) | 200 µM (≈ 85.3 µg/mL) | 200 µM (≈ 85.3 µg/mL) | – | 200 µM (≈ 85.3 µg/mL) | 100 µM (≈ 42.7 µg/mL) | 200 µM (≈ 85.3 µg/mL) | 100 µM (≈ 42.7 µg/mL) | 200 µM (≈ 85.3 µg/mL) | 100 µM (≈ 42.7 µg/mL) | 200 µM (≈ 85.3 µg/mL) | 100 µM (≈ 42.7 µg/mL) | 200 µM (≈ 85.3 µg/mL) | 200 µM (≈ 85.3 µg/mL) | 71% | 100% | MBC [10]: 200 µM (≈ 85.3 µg/mL); MIC [10]: 100 µM (≈ 42.7 µg/mL); Pss reduction compared to the DMSO group ([11]; curative (1 dpi)): 1.9±0.7 log CFU/g
5 | O=C(O)COc1ccc(Cl)cc1Cl [2,4-D] | – | – | – | – | – | – | – | – | – | – | – | – | – | – | – | – | – | – | – | – | root length of germlings [12]: 1.5±0.7 cm; shoot length of germlings [12]: 0 cm; necrotic or chlorotic symptoms on pepper fruit surface [13]: severe necrotic and chlorotic symptoms; also recorded: caused chlorosis and deformation of the fruit surface; necrotic or chlorotic symptoms on seedling cotyledons [14]: severe necrotic and chlorotic symptoms; also recorded: caused necrotic or chlorotic symptoms
